Reference: a melting point compilation (Tetko et al.; mined from patent text by program, amines drawn as free bases though some values may be those of a salt)

SMILES	melting point
COc1ccc(OCCCO)cc1	56 to 60 °C
O=C(O)Cc1c(Cl)nc(-c2ccccc2)n1Cc1ccc(O)cc1	196 to 199 °C
Cc1ccc2c(c1)C(=O)N(CCO[N+](=O)[O-])CO2	76 to 78 °C
CCCCC(C=C1c2cc3c(cc2-c2sc(-c4cc5sccc5s4)cc21)C(=CC(CC)CCCC)c1cc(-c2cc4sccc4s2)sc1-3)CC (stereo unspecified)	320 °C
Cc1noc(-c2ncn3c2CN(C)C(=O)c2c(Cl)cccc2-3)n1	212 to 213 °C
COc1ccc(N)c(CS(=O)(=O)c2ccccc2)c1	110 to 111 °C
CCOC(=O)CSc1nc(Cl)cc(Nc2ccc(Cl)cc2)n1	109 to 112 °C
CSc1nsc(N)c1C#N	188 to 189 °C
Cc1ccc(-c2cc(F)c(F)cc2-c2ccc(S(N)(=O)=O)cc2)cc1Cl	139 to 140 °C
C=CC1OC(=O)N2c3ccc(O)cc3CCC12 (stereo unspecified)	250 °C
CC(C)(O)P(=O)(O)CCCN	243 to 244 °C
COc1ccc2c(c1)Sc1c(cc(OC)c(OC)c1Br)N2C(C)=O	147 to 149 °C
COc1cccc(C(=O)NN=C2C(=O)Nc3ccc(I)cc32)c1	287 °C
O=C1Nc2cccc(Br)c2C12COc1cc3c(cc12)OCCO3 (stereo unspecified)	> 250 °C
COc1ccccc1C1CC(=O)Oc2ccc(Cl)cc21 (stereo unspecified)	172 to 173 °C
CN(c1cccc2cc(-c3nncs3)[nH]c12)S(=O)(=O)c1cccs1	270 to 271 °C
O=C(O)CCCCCc1oc(-n2cnc3ccccc32)nc1-c1ccc(Cl)cc1	158 to 159 °C
NC(=O)N(O)Cc1ccc(-c2ccccc2)s1	174 °C
O=S(=O)(c1ccc(/C=C/c2nc(COc3ccc(CCCCn4ccnn4)cc3)co2)cc1)C(F)(F)F	133 to 135 °C
Cc1cccc(-c2nc(NC(=O)Nc3ccccc3)sc2-c2ccnc(C)n2)c1	141 to 142 °C
O=C(Nc1cc(Br)cc(C(F)(F)F)c1)Oc1ccc([N+](=O)[O-])cc1	140 to 142 °C
CCOC(=O)c1nc2ccccn2c1-c1ccccc1	106 °C
CCCN(CCC)C1Cc2cccc3c2N(CCC3)C1 (stereo unspecified)	112 to 116 °C
CSc1nn(C(=O)Oc2ccccc2)c(=O)n1N	161 °C
N/N=C/c1ccc(-c2ncn(-c3ccc(OC(F)(F)F)cc3)n2)cc1	222 to 226 °C
CCOCc1nc2c(N)nc3ccccc3c2n1CC1CC(c2ccccc2)=NO1 (stereo unspecified)	235 to 237 °C
Nc1ccc(OCCN2CCN(c3nsc4ccccc34)CC2)cc1	128 °C

SMILES	melting point
ICCC(c1ccccc1)c1ccccc1	51 to 55 °C
Fc1ccc(CC[C@H]2CNCCN2)cc1	112 to 114 °C
CN(c1ccc(OC(F)(F)F)cc1)c1cc(C(F)(F)F)nc(NN=Cc2ccc(OC(F)(F)F)cc2)n1	180 to 182 °C
CCOC(=O)Nc1nc(-c2ccccc2)c(-c2nc3ccccc3c(=O)n2-c2cccc(OC)c2)s1	204 to 205 °C
O=C(NCc1ccccc1)Nc1ccc(Cl)cc1	206 to 208 °C
CCCCOc1nc2cccc(C(=O)OC)c2n1Cc1ccc(-c2ccccc2-c2nnn[nH]2)cc1	146 to 148 °C
Nc1c(F)c(Cl)c(O)c(Cl)c1F	151 °C
Cc1ccc2c(c1)NC(=O)c1cccc3c1N2CC3	238 to 240 °C
CN(C)C(=S)Oc1ccc2ncc([N+](=O)[O-])c(-c3ccccc3)c2c1	205 to 208 °C
CCOCc1nc2c(N)nc3ccccc3c2n1CCCC1(C)OCCO1	150 to 152 °C
CC(=O)C1CCC2C3CCC4CC(O)CCC4(C)C3C(OC(=O)CCl)CC12C (stereo unspecified)	83 to 86 °C
O=S1(=O)N=C(n2ccnc2)Nc2cc(F)c(F)cc21	264 to 266 °C
O=C1N[C@H](c2ccccc2)CSC[C@@H]1N1C(=O)c2ccccc2C1=O	280 to 282 °C
COc1ccc(-c2cnc3c(n2)c(C#N)cn3S(=O)(=O)c2ccc(C)cc2)cc1OC	233 to 234 °C
COc1cc(C)nc(-c2ccc(C=O)cc2)n1	125 to 126 °C
FC(F)Oc1ccc(-c2nc3ccc(OC(F)(F)F)cc3[nH]2)cc1	185 to 187 °C
CCN1C(=O)C(C)(C)C(=O)N(C)c2cc(CN(CCn3ccc4ccsc4c3=O)Cc3cc(C)nn3C)ccc21	127 to 128 °C
O=C(O)c1c2ccccc2nc2ccc3ccccc3c12	169 to 170 °C
Cc1cc2c(cc1C)-n1ccc(=O)nc1CC(c1ccc(-n3c(C)nc4cnccc43)cc1)=N2	192 to 194 °C
CCc1noc(CC(=O)N(C)c2ccccc2)n1	53 °C
COc1ccc(C=C(c2ccc(OC)cc2)c2ccc(OC)cc2)cc1	100 to 101 °C
CC(C(=O)O)c1ccc(Oc2ccccc2F)cc1 (stereo unspecified)	106 to 108 °C
COc1ccc(Cn2c(=O)c(=NNc3ccccc3)c(=O)n(CCC(C)C)c3ccccc32)cc1	189 to 191 °C
Cn1ccc2c1Cc1nncn1C=C2	178 °C
CN1CC=C(c2c[nH]c3ccc(OS(=O)(=O)c4ccccc4)cc23)CC1	186 to 190 °C
C[C@@H](NC(=O)c1csc(-c2cccnc2)n1)[C@](O)(Cn1cncn1)c1ccc(F)cc1F	182 to 183 °C

Continued, values first:

melting point	SMILES
> 300 °C	CC(=O)NCC(=O)Nc1cc(Cl)cc(Nc2ncnc3[nH]cc(C(=O)c4ccccc4)c23)c1
178 °C	O=C(Nc1nc2c(ncn2CC(O)CF)c(=O)[nH]1)c1ccccc1 (racemic)
188 to 193 °C	CC(=Cc1ccc(OCCCNc2ccc(Cl)cc2)cc1)C(=O)O
175 °C	CC(=O)N1c2cc(C)c(S(=O)(=O)C[N+](=O)[O-])c(C)c2CC1C (stereo unspecified)
235 to 236 °C	N#Cc1cc(C(=O)O)c2c(c1)C(C(=O)O)CCN2 (stereo unspecified)
257 °C	O=P(O)(O)C(O)(Cc1ccc2ccccc2c1)P(=O)(O)O
126 to 129 °C	CCCCCCCCCC(=O)Nc1cc(C(=O)N2CCCCC2CO)c2cc[nH]c2c1 (stereo unspecified)
115 to 118 °C	COc1cc(CCNC(=O)[C@@H](NC(=O)OC(C)(C)C)C(C)C)ccc1OCc1ccccc1
150 to 154 °C	CCOC(=O)C1=C(COCC(=O)O)NC(C)=C(C(=O)OC)C1c1ccccc1Cl (stereo unspecified)
165 to 166 °C	CN(C)c1cc2c(cc1OCc1ccccc1)CCC1C2CCC2(C)C(=O)CCC12 (stereo unspecified)
240 to 242 °C	C[C@@H]1S[C@@H](C(=O)Nc2ccc(CN3C(=O)COC3=O)cc2)Cc2cc3c(cc2C1=O)OCO3
225 to 226 °C	C[C@H](NC(=O)c1c[nH]c2ncc(-c3ccc(C(=O)NCc4ccccc4)s3)nc12)C(C)(C)C
140 °C	O=C(Cl)c1cc(Cl)cc2c1OCCO2
82 to 83 °C	CCOC(=O)c1cnc2nc(C)ccc2c1OCC
150 to 151 °C	CC(=O)NC1C(O)OC(CO)C(O)C1OC(C)C(=O)NC(C)C(=O)NC(CCC(=O)O)C(N)=O (stereo unspecified)
156 to 158 °C	CC(=O)N1CCOc2ccc(C3=NNC(=O)CC3)cc21
68 °C	CC(C)(C)OC(=O)C(=[N+]=[N-])C(=O)COCc1ccccc1
182 to 185 °C	CC1NC(=O)NN=C1c1ccc(NCCO)cc1 (stereo unspecified)
110 to 111 °C	COC(=O)c1cc(Cl)cc([N+](=O)[O-])c1N
91 °C	COC(=O)[C@H]1CC[C@@H](c2ccc(F)cc2)N1S(=O)(=O)c1ccc(C)cc1 (racemic)
200 to 204 °C	CC(C)[C@@H](C(=O)N[C@@H](Cc1ccccc1)[C@@H](O)[C@H](O)[C@H](Cc1ccccc1)NC(=O)[C@H](C(C)C)N(C)C)N(C)C
96 °C	Cc1ccc2c(c1)c1cc(Br)ccc1n2C(=O)OC(C)(C)C
137 to 139 °C	COC(=O)c1ccc(NC(=O)CSC(C)=O)cc1
83 °C	CCCCCCCCC#CCC#CCC#CCS(=O)(=O)CC(=O)NCC

melting point	SMILES
195 to 196 °C	CCCCS(=O)(=O)NC1Cc2ccc(-c3ccc(=O)[nH]n3)cc2C1 (stereo unspecified)
> 300 °C	Cc1nc(NC(=O)Nc2ccccc2)sc1C(=O)NCc1ccccc1
127 to 128 °C	CC(C)OC(=O)Cn1c(=O)n(C)c(=O)n(-c2ccc(F)cc2Cl)c1=O
138 to 139 °C	COc1ccc(Br)cc1C12CC3CC(CC(C3)C1)C2
89 to 91 °C	COC(=O)c1ccc(OCCNC(=O)c2ccc(C(C)C)cc2)cc1
145 to 148 °C	CCSC1(Sc2ccccc2)CCC2C3CCC4=CC(=O)C=CC4(C)C3(F)C(OC(C)=O)CC21C (stereo unspecified)
128 to 131 °C	COC(=O)[C@H](Cc1c[nH]cn1)NC(=O)[C@H](Cc1ccccc1)NC(=O)[C@H](Cc1ccccc1)NC(=O)C(C)(C)C
148 to 152 °C	COc1cccc(NCC(=O)Nc2ccc(S(N)(=O)=O)cc2Cl)c1
95 to 97 °C	CC(CO)(CO)C(=O)N1CCOCC1
92 to 93 °C	CC(C)(C)OC(=O)Nc1ccn2nc(N3CCOCC3)nc2c1
196 to 199 °C	O=C(Nc1ccccc1)C12CC3CC(CC(C3)C1)C2
60 to 62 °C	CCOC(=O)c1cc(OC)c(C)cc1N
> 300 °C	Cc1ccc(N2C(=O)C(O)=C(C(=O)c3ccc(C(C)C)cc3)C2c2ccc(Cn3cnnn3)cc2)nn1 (stereo unspecified)
158 to 159 °C	CC(C)CCNC(Nc1cc(C(F)(F)F)cc(C(F)(F)F)c1)=C(C#N)C#N
164 to 165 °C	C=C(C)Cc1cc(C(=O)O)ccc1OCc1ccc(F)cc1
116 to 119 °C	COC(=O)c1cc2c(Sc3ccc(C)cc3)cncc2s1
54 to 56 °C	COC[C@H]1CN(c2ccc([C@H]3CC[C@H](OCSC)CC3)cc2)C(=O)O1
119 to 121 °C	CCOC(=O)Cc1csc(NC(=O)C(F)(F)F)n1
241 to 243 °C	O=C(NCCO)c1ccccc1S(=O)(=O)Cc1c(O[C@H](Cn2ccnc2)c2ccccc2)ccc2c1CCCC2=O
69 to 70 °C	CC(C)(C)C(=O)CC(=O)NC1CCCCC1
296 to 298 °C	O=C1CCC(n2cnc3cc(F)ccc3c2=O)C(=O)N1 (stereo unspecified)
68 to 70 °C	C#CC(OC)c1cc(C(C)(C)C)cc(C(C)(C)C)c1OC (stereo unspecified)
204 to 207 °C	COC(=O)COc1ccc(C(=O)NC(=O)Nc2ccc(C#N)cc2)cc1
156 to 158 °C	CN(C)C(=S)N(C)Cc1ccc(CCn2cnc3cc(-c4ccc(Cl)cc4)sc3c2=O)cc1
